Data on 10 molecules can be found in patent US9415087B2, “Compositions and methods for treating coronavirus infection” (LUDWIG-MAXIMILIANS-UNIVERSITAET MUENCHEN, priority 2014, dated 2016).

Entries after “also recorded” stand apart in the source; their conditions may differ. Read-outs that look alike come from different tables or passages of the source.

The target in assay [1] is human CypA (Homo sapiens, UniProt P62937). Format: biochemical. The following applies: protease-coupled PPIase assay; read-out: In vitro inhibition human CypA IC50.
Assay [2] has as its target CnA (Homo sapiens, UniProt P62937+P63098+Q08209). Format: biochemical. The following applies: for IC50: read-out: In vitro inhibition CnA IC50.
The test system of assay [3] is NFAT. Kind of assay: NFAT reporter gene assay (luciferase) in Jurkat cells. The following applies: luciferase-coupled NFAT reporter gene assay; for IC50: read-out: In vitro inhibition NFAT reporter gene assay IC50. It is filed as cell-based. For orientation: Reporter assays use an easily measured gene product as a stand-in for the process of interest.
For assay [4], the system named is HCoV-NL63. The assay is described as follows: microbe, parasite or virus in culture. The following applies: read-out: Inhibition of HCoV-NL63 in CaCo-2 EC50. It is filed as cell-based.
Assay [5] has as its system NFAT-GFP. Kind of assay: NFAT-GFP nuclear translocation assay. The following applies: 40 nM compound, ionomycin 2 μM; yes = non-immunosuppressive.
The subject of assay [6] is HCoV-NL63 N protein. Kind of assay: Western blot of N protein expression in HCoV-NL63-infected CaCo2 cells. Format: cell-based. The following applies: 48 hours, 0 to 20 μM. On the technique in general: In western blotting, separated proteins are transferred to a membrane and probed.
Assay [7] deals with HCoV-229E-LUC. Kind of assay: microbe, parasite or virus in culture. It is filed as cell-based. The following applies: for inhibition of 229E-LUC replication (in words): Huh-7.5 cells.
Assay [8] concerns HCoV-229E N protein. Format: cell-based. The following applies: 48 h.
The subject of assay [9] is Feline Coronavirus (FCoV-LUC). The assay is described as follows: FCoV-LUC replication in Felis catus whole fetus (fcwf) cells, Renilla luciferase. Format: cell-based. The following applies: micromolar concentration, FIG. 10.
Assay [10] deals with SARS-CoV-Replicon RNA. Format: cell-based. The following applies: BHK-21 cells, 20 hours, FIG. 11.
Assay [11] relates to Mouse Hepatitis Virus (MHV-LUC). The assay is described as follows: MHV-LUC replication in L929 cells, luciferase activity. The following applies: micromolar concentration, FIG. 12.
Assay [12] relates to lymphocyte proliferation. The following applies: Sadeg et al. 1993; cited from earlier work.
The mark [13] stands for this setting: Human coronavirus NL63, Caco-2, 48 h.
Setting [14] is: Human coronavirus 229E, Huh7.5, 18 h, read-out: EC50 HCoV-229E-LUC, 18 hrs p.I., Huh-7.5, MOI=0.1.
Where [15] appears, read: Human coronavirus 229E, Huh7.5, 48 h, read-out: EC50 HCoV-229E-LUC, 48 hrs p.I., Huh-7.5, MOI=0.1.

human CypA, sequence (P62937 whole entry): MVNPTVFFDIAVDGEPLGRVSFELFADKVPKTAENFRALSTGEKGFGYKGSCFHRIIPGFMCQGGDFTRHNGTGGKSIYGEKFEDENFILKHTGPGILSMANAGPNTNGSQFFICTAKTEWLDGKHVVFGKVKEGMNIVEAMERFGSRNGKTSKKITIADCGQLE
CnA, sequence (P62937 whole entry, other chains not shown): as the sequence (P62937 whole entry) above
CnA, sequence (P63098 2-170, other chains not shown): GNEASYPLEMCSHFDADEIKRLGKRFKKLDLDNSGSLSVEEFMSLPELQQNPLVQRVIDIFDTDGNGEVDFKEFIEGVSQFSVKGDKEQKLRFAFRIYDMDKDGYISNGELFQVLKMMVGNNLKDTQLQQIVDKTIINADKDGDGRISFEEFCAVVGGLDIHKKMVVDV

As usually defined, the IC50 is the midpoint of a concentration-inhibition curve. In general, EC50 refers to the midpoint of the concentration-response curve. With `CCOP(=O)(CC=CCC(C)C(O)C1C(=O)NC(CC)C(=O)N(C)CC(=O)N(C)C(CC(C)C)C(=O)NC(C(C)C)C(=O)N(C)C(CC(C)C)C(=O)NC(C)C(=O)NC(C)C(=O)N(C)C(CC(C)C)C(=O)N(C)C(CC(C)C)C(=O)N(C)C(C(C)C)C(=O)N1C)OCC` (mixture of isomers) [Compound 1], in assay [1], the IC50 was 0.0091 µM. In [2] (binary PPIase/drug complexes), the “In vitro inhibition CnA IC50” value is “could not be inhibited at all and no”. Besides, the “In vitro inhibition NFAT reporter gene assay IC50” value in [3] is on record as “no”. The EC50 in assay [4] stood at 1.6 µM. In assay [5], the “NFAT-GFP translocation in HEK-293 cells (to the nucleus)” value (shortened to “NFAT-GFP translocation in HEK-293 cells”) was “yes”.

On to `C/C=C/C[C@@H](C)[C@@H](O)[C@H]1C(=O)N[C@@H](CC)C(=O)N(C)[C@H](C)C(=O)N(CC)[C@@H](C(C)C)C(=O)N[C@@H](C(C)C)C(=O)N(C)[C@@H](CC(C)C)C(=O)N[C@@H](C)C(=O)N[C@H](C)C(=O)N(C)[C@@H](CC(C)C)C(=O)N(C)[C@@H](CC(C)C)C(=O)N(C)[C@@H](C(C)C)C(=O)N1C` [ALV, Alisporivir], for which the EC50 in [4] (setting [13]) was 0.8 µM; in [7] (setting [14]), 2.77 µM; in assay [7] (setting [15]), 1.37 µM. For the same molecule, the “concentration at which HCoV-NL63 N-protein decreases” value in assay [6] came to 1.25 µM. The “inhibition of 229E-LUC replication (in words)” value in assay [7] is reported as “low micromolar range”. The “concentration at which HCoV-229E N protein is not detectable anymore” value in assay [8] (Western blot) was 1.25 µM. For the same molecule, the “inhibition of feline Coronavirus spread (in words)” value in [9] was “inhibits spread”. The “inhibition of SARS-CoV-RNA replicon propagation (in words)” value in assay [10] was “inhibition”. For the same molecule, the “NFAT-GFP translocation in HEK-293 cells” value in assay [5] was “yes”. Further, the “inhibition of murine Coronavirus spread (in words)” value in [11] is “inhibits spread”.

`CCC1NC(=O)C(C(O)C(C)CC=CCN(C)C)N(C)C(=O)C(C(C)C)N(C)C(=O)C(CC(C)C)N(C)C(=O)C(CC(C)C)N(C)C(=O)C(C)NC(=O)C(C)NC(=O)C(CC(C)C)N(C)C(=O)C(C(C)C)NC(=O)C(CC(C)C)N(C)C(=O)CN(C)C1=O` (centres unmarked) [Compound 2]: the EC50 in [4] amounted to 7.9 µM. The “NFAT-GFP translocation in HEK-293 cells” value in [5] is given as “yes”.

Consider `CCC1NC(=O)C(C(O)C(C)Cc2nc3ccc(C(=O)OC)cc3[nH]2)N(C)C(=O)C(C(C)C)N(C)C(=O)C(CC(C)C)N(C)C(=O)C(CC(C)C)N(C)C(=O)C(C)NC(=O)C(C)NC(=O)C(CC(C)C)N(C)C(=O)C(C(C)C)NC(=O)C(CC(C)C)N(C)C(=O)CN(C)C1=O` (centres unmarked) [Compound 3], for which the IC50 in assay [1] was determined as 0.0119 µM; in assay [2] it was 6.9 µM. Moreover, the EC50 in assay [4] turned out to be 1.1 µM; in [7] (18 hrs p.I., Huh-7.5, MOI=0.1, read-out: EC50 HCoV-229E-LUC) it was 2.05 µM; in [7] (48 hrs p.I., Huh-7.5, MOI=0.1, listed as Comp. 3, read-out: EC50 HCoV-229E-LUC), 0.92 µM; in [7] (48 hrs p.I., Huh-7.5, MOI=0.1, read-out: EC50 HCoV-229E-LUC) it was 0.97 µM. The “concentration at which HCoV-NL63 N-protein decreases” value in assay [6] stood at 1.25 µM. Moreover, the “inhibition of 229E-LUC replication (in words)” value in assay [7] is “low micromolar range”. Besides, the “NFAT-GFP translocation in HEK-293 cells” value in assay [5] was “yes”.

For the molecule `CCC1NC(=O)C(C(O)C(C)Cc2nc3ccc(C(=O)c4ccccc4)cc3[nH]2)N(C)C(=O)C(C(C)C)N(C)C(=O)C(CC(C)C)N(C)C(=O)C(CC(C)C)N(C)C(=O)C(C)NC(=O)C(C)NC(=O)C(CC(C)C)N(C)C(=O)C(C(C)C)NC(=O)C(CC(C)C)N(C)C(=O)CN(C)C1=O` (centres unmarked) [Compound 4], the figures for the IC50 in assay [1], in assay [2] (binary PPIase/drug complexes) and in assay [3] were 0.0141 µM, approximately 10 µM and 1.3 µM, respectively. Further, the EC50 in assay [4] was found to be 8.1 µM. Also, the “NFAT-GFP translocation in HEK-293 cells” value in assay [5] is reported as “yes”.

For `CCC1NC(=O)C(C(O)C(C)Cc2nc3ccc(-c4nc5ccccc5s4)cc3[nH]2)N(C)C(=O)C(C(C)C)N(C)C(=O)C(CC(C)C)N(C)C(=O)C(CC(C)C)N(C)C(=O)C(C)NC(=O)C(C)NC(=O)C(CC(C)C)N(C)C(=O)C(C(C)C)NC(=O)C(CC(C)C)N(C)C(=O)CN(C)C1=O` (centres unmarked) [Compound 5], the IC50 in assay [1] was 0.0166 µM; in assay [2] (binary PPIase/drug complexes), more than 10 µM; in assay [3], 1.2 µM. Moreover, the concentration giving a half-maximal response (EC50) in assay [4] turned out to be 2.3 µM. For the same molecule, the “NFAT-GFP translocation in HEK-293 cells” value in [5] is “yes”.

As for `C/C=C/C[C@@H](C)[C@@H](O)[C@H]1C(=O)N[C@@H](C(C)C)C(=O)N(C)CC(=O)N(C)[C@@H](CC(C)C)C(=O)N[C@@H](C(C)C)C(=O)N(C)[C@@H](CC(C)C)C(=O)N[C@@H](C)C(=O)N[C@H](C)C(=O)N(C)[C@@H](CC(C)C)C(=O)N(C)[C@@H](CC(C)C)C(=O)N(C)[C@@H](C(C)C)C(=O)N1C` [CsD], the EC50 in assay [4] turned out to be 2.5 µM. Further, the “immunosuppressant activity in lymphocyte proliferation assays relative to CsA” value in assay [12] is reported as “about 10 % of the CsA activity”. For the same molecule, in assay [5], the “NFAT-GFP translocation in HEK-293 cells” value was “remained in the cytoplasm and no”.

With `C/C=C/C[C@@H](C)[C@@H](O)[C@H]1C(=O)N[C@@H](CC)C(=O)N(C)CC(=O)N(C)[C@@H](CC(C)C)C(=O)N[C@@H](C(C)C)C(=O)N(C)[C@@H](CC(C)C)C(=O)N[C@@H](C)C(=O)N[C@H](C)C(=O)N(C)[C@@H](CC(C)C)C(=O)N(C)[C@@H](CC(C)C)C(=O)N(C)[C@H](C(C)C)C(=O)N1C` [CsH, Cyclosporin H], in assay [7], the “inhibition of 229E-LUC replication (in words)” value was “slight residual inhibitory activity; also recorded: do not inhibit”. Moreover, the “HCoV-229E N protein synthesis (in words)” value in assay [8] (at 20 μM) is reported as “allow significant N protein synthesis”.

Take `C=CC[C@@H]1/C=C(\C)C[C@H](C)C[C@H](OC)[C@H]2O[C@@](O)(C(=O)C(=O)N3CCCC[C@H]3C(=O)O[C@H](/C(C)=C/[C@@H]3CC[C@@H](O)[C@H](OC)C3)[C@H](C)[C@@H](O)CC1=O)[C@H](C)C[C@@H]2OC` [FK506]: the half-maximal effective concentration (EC50) in [4] (setting [13]) was determined as 6.6 µM; in assay [7] (setting [14]), 2.96 µM; in [7] (setting [15]) it was 0.86 µM.

In the case of `C/C=C/C[C@@H](C)[C@@H](O)[C@H]1C(=O)N[C@@H](CC)C(=O)N(C)CC(=O)N(C)[C@@H]([C@@H](C)CC)C(=O)N[C@@H](C(C)C)C(=O)N(C)[C@@H](CC(C)C)C(=O)N[C@@H](C)C(=O)N[C@H](C)C(=O)N(C)[C@@H](CC(C)C)C(=O)N(C)[C@@H](CC(C)C)C(=O)N(C)[C@@H](C(C)C)C(=O)N1C` [NIM811], the values for the EC50 in assay [4] (setting [13]), in [7] (setting [14]) and in assay [7] (setting [15]) were 0.8 µM, 3.11 µM and 1.19 µM, respectively. Also, the “concentration at which HCoV-NL63 N-protein decreases” value in assay [6] was 1.25 µM. In addition, the “inhibition of 229E-LUC replication (in words)” value in assay [7] is reported as “low micromolar range”. Also, the “inhibition of feline Coronavirus spread (in words)” value in [9] is “inhibits spread”. Also, the “inhibition of SARS-CoV-RNA replicon propagation (in words)” value in [10] is “inhibition”. For the same molecule, in assay [5], the “NFAT-GFP translocation in HEK-293 cells” value is given as “yes”. In [11], the “inhibition of murine Coronavirus spread (in words)” value is reported as “inhibits spread”.
